Measured values from publication PMC4492759, “Pharmacological profiling of the hemodynamic effects of cannabinoid ligands: a combined in vitro and in vivo approach” (Pharmacology Research & Perspectives, 2015).

Experiments:
[1] = system: anesthetized WT and GPR55−/− mice; test: Hemodynamic responses (MABP, HR) in anesthetized WT and GPR55−/− mice; format: in vivo, mouse; conditions: O-1602 5–100 ng kg−1 i.v.; WT mice
Method: All experiments performed under terminal anesthesia were carried out following approval by Robert Gordon University Animal Ethics Panel. Anesthesia was induced in male SD rats (200–300 g) by sodium pentobarbital [60 mg kg^−1 intraperitoneal (i.p.) injection]. Male/female WT and GPR55^−/− mice (25–35 g) were anesthetized with a mixture of ketamine (120 mg kg^−1) and xylazine (16 mg kg^−1) via i.p. injection. For both species the trachea was cannulated to allow artificial respiration with room air when required (54 strokes min^−1 and tidal volume 1.5 mL 100 g^−1 for rats; 120 strokes min^−1 and tidal volume 100 μL 10 g^−1 for mice) and the left carotid artery and right jugular vein were cannulated for the measurement of arterial BP (MLT844 Physiological Pressure Transducer; AD Instruments, Oxford, UK) and drug administration, respectively. Core temperature was monitored continuously and maintained at 37–38°C with the aid of a Vetcare heated pad (Harvard Apparatus Ltd., Boston, Massachusetts, USA). Anesthesia was monitored by foot pinch reflex and maintained throughout by administration of additional doses of anesthetic (rats: 3–4 mg kg^−1 of sodium pentobarbital salt i.v.; mice: 50 μL 25 g^−1of ketamine/xylazine i.p.) every 40 min, or as required. […] Heart rate (HR) was calculated from the ECG and recorded throughout the entire experimental period. After a stabilization period of approximately 15 min dose–response experiments were carried out as described below.
As a preliminary assessment of the effects of ACEA on arterial BP, a single bolus intravenous dose (3 mg kg^−1; selected from the literature as a dose known to produce a depressor response) was given to anesthetized rats. […] The time interval between drug administrations was 10–15 min to allow BP values to return to predrug values.

conscious SHR = test: Blood pressure and heart rate responses in conscious hypertensive rats (SHR)
Method: Following anesthesia with isoflurane (4% in air followed by 2% during surgery) with supplemental Romefen® (10 mg kg^−1 s.c.; Merial SAS, Lyon, France) for analgesia, a polyethylene catheter (PE10) was inserted into the abdominal aorta, proximal to the kidneys, for BP recording, and a silicon catheter (SEDAT, Irigny, France) was inserted into the jugular vein for drug administration. Both catheters were tunneled subcutaneously to the neck region and anchored to an inert button. Immediately after completion of surgery the rats were connected to a tethered swivel system with a continuous intra-arterial infusion (700 μL h^−1) of 0.9% NaCl containing melagatran (10 mg L^−1) in order to keep the arterial line open. The anesthetic and surgical procedures for the CB1^−/−, GPR55^−/−, and WT mice used for the studies in conscious animals were identical to those in the rat, with the exception that the arterial catheter was placed in the descending aorta via the carotid artery. Following the completion of surgery, the animals were allowed to recover for 24 h with free access to food and water.
In order to take account of any vehicle responses and variations in the time course of the responses to the various cannabinoid ligands, a standard approach was adopted to measuring the BP responses in all experimental models. […] All drug responses were compared directly with the vehicle responses to determine the exact magnitude of the response to the ligand.

[2] = system: conscious WT, CB1−/− and GPR55−/− mice; test: Blood pressure and heart rate responses in conscious mice (WT, CB1−/−, GPR55−/−); conditions: for HR bradycardic response - area above the curve / MABP depressor response - area above the curve: metoprolol pretreated
mouse CB1 = biological target: T1, mouse CB1 (Mus musculus, UniProt P47746); test: [35S]-GTPγS binding, membranes of HEK293s cells transfected with mouse CB1; format: biochemical; conditions: agonist mode; mean ± SEM, at least three experiments; read-out: CB1 EC50, Mouse
T1 construct: expressed in transfected cells; host or cells: HEK293s, transient transfection; membranes prepared
T1 sequence (P47746 whole entry): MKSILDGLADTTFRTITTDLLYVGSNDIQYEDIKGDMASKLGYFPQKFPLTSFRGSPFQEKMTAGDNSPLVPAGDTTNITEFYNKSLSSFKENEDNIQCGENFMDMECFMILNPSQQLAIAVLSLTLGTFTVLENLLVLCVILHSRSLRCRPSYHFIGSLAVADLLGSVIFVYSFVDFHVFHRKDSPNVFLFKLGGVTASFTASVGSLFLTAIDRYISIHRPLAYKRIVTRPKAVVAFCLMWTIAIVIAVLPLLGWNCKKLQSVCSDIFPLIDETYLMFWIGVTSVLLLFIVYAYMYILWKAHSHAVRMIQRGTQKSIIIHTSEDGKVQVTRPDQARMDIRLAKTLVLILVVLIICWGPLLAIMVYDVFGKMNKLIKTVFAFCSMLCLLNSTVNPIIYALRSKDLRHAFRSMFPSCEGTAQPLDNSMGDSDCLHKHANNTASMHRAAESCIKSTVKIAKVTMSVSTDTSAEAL
Method: Antagonist assays were performed similarly, with the addition of an EC80 concentration of CP55940 as a nonselective CB1/CB2 agonist in conjunction with the ligand to be tested. Nonspecific binding was determined in the presence of 20 μmol/L unlabeled GTPγS. The reaction was terminated by addition of ice-cold wash buffer (50 mmol/L Tris-HCl, 5 mmol/L MgCl2, 50 mmol/L NaCl; pH 7.4) followed by rapid filtration under vacuum through 96-well B-glass fiber filter plates (PerkinElmer, Waltham, Massachusetts, USA) using a Biomek FX (Beckman Coulter, Bromma, Sweden). The filter plates were dried (30 min at 50°C) before scintillation liquid (PerkinElmer) was added onto the filters and the bound radioactivity was determined using a scintillation counter (Wallac). Data were fitted with a four-parameter logistic fit using the equation y = A + (B − A)/1 + ((C/x)^D), where A is no activation, B is full activation, C is the EC50, and D is the Hill slope. All data were based on at least three independent experiments.

[3] = O-1602 5 mg kg−1, +AM281 (10 mg kg−1), metoprolol pretreated
[4] = O-1602 5 mg kg−1, +CBD (5 mg kg−1), metoprolol pretreated
[5] = O-1602 5 mg kg−1, +CBD and AM281, metoprolol pretreated
[6] = O-1602 10 mg kg−1, +AM281 (10 mg kg−1), metoprolol pretreated
[7] = O-1602 10 mg kg−1, +CBD (5 mg kg−1), metoprolol pretreated
[8] = O-1602 10 mg kg−1, +CBD and AM281, metoprolol pretreated
[9] = O-1602 10 mg kg−1, Control, metoprolol pretreated
[10] = O-1602 20 mg kg−1, +AM281 (10 mg kg−1), metoprolol pretreated
[11] = O-1602 20 mg kg−1, +CBD (5 mg kg−1), metoprolol pretreated
[12] = O-1602 20 mg kg−1, +CBD and AM281, metoprolol pretreated
[13] = O-1602 20 mg kg−1, Control, metoprolol pretreated
[14] = O-1602 5 mg kg−1, +CBD (5 mg kg−1)
[15] = O-1602 5 mg kg−1, column Control
[16] = O-1602 10 mg kg−1, +CBD (5 mg kg−1)
[17] = O-1602 10 mg kg−1, column Control
[18] = O-1602 15 mg kg−1, +CBD (5 mg kg−1)
[19] = O-1602 15 mg kg−1, column Control

## C=C(C)[C@@H]1CCC(C)=C[C@H]1c1c(C)cc(O)cc1O [O-1602]
[1]
  changes in MABP or HR over and above vehicle: did not produce any changes
Conscious SHR; [3]
  HR tachycardic response – area under the curve: 39 ± 11 arbitrary units
  MABP depressor response - area above the curve: 196 ± 44 arbitrary units
Conscious SHR; [4]
  HR tachycardic response – area under the curve: 68 ± 11 arbitrary units
  MABP depressor response - area above the curve: 189 ± 32 arbitrary units
Conscious SHR; [5]
  HR tachycardic response – area under the curve: 53 ± 22 arbitrary units
  MABP depressor response - area above the curve: 41 ± 17 arbitrary units
Conscious SHR; O-1602 5 mg kg−1, Control, metoprolol 10 mg kg−1 i.v. pretreated
  MABP depressor response - area above the curve: 59 ± 21 arbitrary units
Conscious SHR; O-1602 5 mg kg−1, Control, metoprolol pretreated
  HR tachycardic response – area under the curve: 61 ± 24 arbitrary units
Conscious SHR; [6]
  HR tachycardic response – area under the curve: 40 ± 12 arbitrary units
  MABP depressor response - area above the curve: 160 ± 31 arbitrary units
Conscious SHR; [7]
  HR tachycardic response – area under the curve: 79 ± 29 arbitrary units
  MABP depressor response - area above the curve: 23 ± 17 arbitrary units
Conscious SHR; [8]
  HR tachycardic response – area under the curve: 37 ± 32 arbitrary units
  MABP depressor response - area above the curve: 180 ± 29 arbitrary units
Conscious SHR; [9]
  HR tachycardic response – area under the curve: 18 ± 8 arbitrary units
  MABP depressor response - area above the curve: 56 ± 22 arbitrary units
Conscious SHR; [10]
  HR tachycardic response – area under the curve: 56 ± 26 arbitrary units
  MABP depressor response - area above the curve: 191 ± 30 arbitrary units
Conscious SHR; [11]
  HR tachycardic response – area under the curve: 98 ± 32 arbitrary units
  MABP depressor response - area above the curve: 73 ± 38 arbitrary units
Conscious SHR; [12]
  HR tachycardic response – area under the curve: 38 ± 16 arbitrary units
  MABP depressor response - area above the curve: 199 ± 29 arbitrary units
Conscious SHR; [13]
  HR tachycardic response – area under the curve: 72 ± 13 arbitrary units
  MABP depressor response - area above the curve: 26 ± 16 arbitrary units
Conscious SHR; O-1602 alone, three ascending doses 5, 10, and 20 mg kg−1 spaced 20 min apart
  changes in MABP or HR: did not induce any changes
[2]; O-1602 5 mg kg−1, +AM281
  HR bradycardic response - area above the curve: 55.3 ± 20.9 arbitrary units
  MABP depressor response - area above the curve: 64.6 ± 17.5 arbitrary units
[2]; O-1602 5 mg kg−1, +CBD & AM281
  HR bradycardic response - area above the curve: 154.8 ± 61.7 arbitrary units
[2]; [14]
  HR bradycardic response - area above the curve: 17.4 ± 11.7 arbitrary units
  MABP depressor response - area above the curve: 99.6 ± 25.8 arbitrary units
[2]; O-1602 5 mg kg−1, +CBD and AM281
  MABP depressor response - area above the curve: 73.3 ± 24.5 arbitrary units
[2]; [15]
  HR bradycardic response - area above the curve: 41.1 ± 20.8 arbitrary units
  MABP depressor response - area above the curve: 91.9 ± 38.2 arbitrary units
[2]; O-1602 10 mg kg−1, +AM281
  HR bradycardic response - area above the curve: 130.5 ± 20.5 arbitrary units
  MABP depressor response - area above the curve: 95.2 ± 6.5 arbitrary units
[2]; O-1602 10 mg kg−1, +CBD & AM281
  HR bradycardic response - area above the curve: 298.2 ± 111.7 arbitrary units
[2]; [16]
  HR bradycardic response - area above the curve: 186.8 ± 42.1 arbitrary units
  MABP depressor response - area above the curve: 73.5 ± 17.8 arbitrary units
[2]; O-1602 10 mg kg−1, +CBD and AM281
  MABP depressor response - area above the curve: 114.6 ± 17.6 arbitrary units
[2]; [17]
  HR bradycardic response - area above the curve: 48.7 ± 25.4 arbitrary units
  MABP depressor response - area above the curve: 44.1 ± 9.6 arbitrary units
[2]; O-1602 15 mg kg−1, +AM281
  HR bradycardic response - area above the curve: 183.1 ± 50.9 arbitrary units
  MABP depressor response - area above the curve: 101.5 ± 4.1 arbitrary units
[2]; O-1602 15 mg kg−1, +CBD & AM281
  HR bradycardic response - area above the curve: 286.6 ± 105.4 arbitrary units
[2]; [18]
  HR bradycardic response - area above the curve: 197.1 ± 17.1 arbitrary units
  MABP depressor response - area above the curve: 148.9 ± 17.1 arbitrary units
[2]; O-1602 15 mg kg−1, +CBD and AM281
  MABP depressor response - area above the curve: 119.7 ± 18.1 arbitrary units
[2]; [19]
  HR bradycardic response - area above the curve: 95.3 ± 6.5 arbitrary units
  MABP depressor response - area above the curve: 61.3 ± 10.9 arbitrary units
[2]; O-1602, conscious CB1−/− mice
  effect on MABP: dose-dependent depressor response
[2]; O-1602 alone, highest dose tested, conscious WT mice
  effect on HR: transient bradycardia
[2]; O-1602 alone, conscious WT mice
  effect on MABP: no effect
[2]; O-1602 in the presence of AM281 (10 mg kg−1), GPR55−/− mice
  depressor response: did not elicit a depressor response
Mouse CB1
  EC50: > 30 µM
